Legend:
Experiment in all cases: relative viability (nuclei count vs DMSO), 5 days (fraction); higher = more cells survive
[1] = compound: CCn1c(-c2nonc2N)nc2cnc(Oc3cccc(NC(=O)c4ccc(OCCN5CCOCC5)cc4)c3)cc21 + Cc1nc(Nc2ncc(C(=O)Nc3c(C)cccc3Cl)s2)cc(N2CCN(CCO)CC2)n1 [Dasatinib] (partner 0.075 µM)
In short: (§1)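 Relative viability is defined as nuclei in treated wells over nuclei in vehicle wells. Duplicate plates were run and medians reported. Lung cancer cell lines in 1536-well plates were dosed by pin tool one day after seeding, with one drug or with a fixed anchor-drug dose plus five library-drug doses (not always all listed) in √10 steps, and nuclei were counted after 5 days.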

[2] = compound: CCC1=CN=CN=C1N2CCN(CC2)CC3=NC4=C(N3)C=C(C=C4)C(F)(F)F + O=C(c1cc(Cc2n[nH]c(=O)c3ccccc23)ccc1F)N1CCN(C(=O)C2CC2)CC1 [Olaparib] (partner 8 µM)
In short: as §1

[3] = compound: CCn1c(-c2nonc2N)nc2cnc(Oc3cccc(NC(=O)c4ccc(OCCN5CCOCC5)cc4)c3)cc21 + Cc1nc(NC(=O)N2CCC[C@H]2C(N)=O)sc1-c1ccnc(C(C)(C)C(F)(F)F)c1 [Alpelisib] (partner 2 µM)
In short: as §1

[4] = compound: CCC1=CN=CN=C1N2CCN(CC2)CC3=NC4=C(N3)C=C(C=C4)C(F)(F)F + C[C@]1(O)C[C@@H](c2nc(-c3ccc4ccc(-c5ccccc5)nc4c3)c3c(N)nccn32)C1 [Linsitinib] (partner 1 µM)
In short: as §1

SW 1573 showed a relative viability ([1]; first compound 0.04 µM) of 0.597, a relative viability ([1]; first compound 0.1265 µM) of 0.319 and a relative viability ([1]; first compound 0.4 µM) of 0.21. It also gave a relative viability ([1]; first compound 1.265 µM) of 0.246, a relative viability ([1]; first compound 4 µM) of 0.166 and a relative viability ([2]; first compound 0.04 µM) of 0.447. For the same cell line, the relative viability ([2]; first compound 0.1265 µM) was 0.462, the relative viability ([2]; first compound 0.4 µM) was 0.45 and the relative viability ([2]; first compound 1.265 µM) was 0.443. It also gave a relative viability ([2]; first compound 4 µM) of 0.379, a relative viability ([3]; first compound 0.04 µM) of 0.968 and a relative viability ([3]; first compound 0.1265 µM) of 0.823. It also gave a relative viability ([3]; first compound 0.4 µM) of 0.48, a relative viability ([3]; first compound 1.265 µM) of 0.397 and a relative viability ([3]; first compound 4 µM) of 0.276. For the same cell line, the relative viability ([4]; first compound 0.04 µM) was 0.574, the relative viability ([4]; first compound 0.1265 µM) was 0.683 and the relative viability ([4]; first compound 0.4 µM) was 0.862. The relative viability ([4]; first compound 1.265 µM) was 0.777 and the relative viability ([4]; first compound 4 µM) was 0.866.
With NCI-H1975 the relative viability ([1]; first compound 0.04 µM) was 0.309, the relative viability ([1]; first compound 0.1265 µM) was 0.268 and the relative viability ([1]; first compound 0.4 µM) was 0.186. The relative viability ([1]; first compound 1.265 µM) was 0.18, the relative viability ([1]; first compound 4 µM) was 0.142 and the relative viability ([2]; first compound 0.04 µM) was 0.9. The relative viability ([2]; first compound 0.1265 µM) was 0.729, the relative viability ([2]; first compound 0.4 µM) was 0.735 and the relative viability ([2]; first compound 1.265 µM) was 0.718. For the same cell line, the relative viability ([2]; first compound 4 µM) was 0.667, the relative viability ([3]; first compound 0.04 µM) was 0.548 and the relative viability ([3]; first compound 0.1265 µM) was 0.439. The relative viability ([3]; first compound 0.4 µM) was 0.401, the relative viability ([3]; first compound 1.265 µM) was 0.221 and the relative viability ([3]; first compound 4 µM) was 0.202. It also gave a relative viability ([4]; first compound 0.04 µM) of 1.07, a relative viability ([4]; first compound 0.1265 µM) of 0.966 and a relative viability ([4]; first compound 0.4 µM) of 0.898. It also gave a relative viability ([4]; first compound 1.265 µM) of 0.901 and a relative viability ([4]; first compound 4 µM) of 0.921.
Work on SK-LU-1 yielded a relative viability ([1]; first compound 0.04 µM) of 0.157, a relative viability ([1]; first compound 0.1265 µM) of 0.15 and a relative viability ([1]; first compound 0.4 µM) of 0.103. For the same cell line, the relative viability ([1]; first compound 1.265 µM) was 0.139, the relative viability ([1]; first compound 4 µM) was 0.128 and the relative viability ([2]; first compound 0.04 µM) was 0.452. The relative viability ([2]; first compound 0.1265 µM) was 0.438, the relative viability ([2]; first compound 0.4 µM) was 0.47 and the relative viability ([2]; first compound 1.265 µM) was 0.443. The relative viability ([2]; first compound 4 µM) was 0.442, the relative viability ([3]; first compound 0.04 µM) was 1.17 and the relative viability ([3]; first compound 0.1265 µM) was 0.821. For the same cell line, the relative viability ([3]; first compound 0.4 µM) was 0.599, the relative viability ([3]; first compound 1.265 µM) was 0.42 and the relative viability ([3]; first compound 4 µM) was 0.349. For the same cell line, the relative viability ([4]; first compound 0.04 µM) was 1.28, the relative viability ([4]; first compound 0.1265 µM) was 1.24 and the relative viability ([4]; first compound 0.4 µM) was 1.32. The relative viability ([4]; first compound 1.265 µM) was 1 and the relative viability ([4]; first compound 4 µM) was 1.06.
Cell Line NCI-H460 has a relative viability ([1]; first compound 0.04 µM) of 0.467, a relative viability ([1]; first compound 0.1265 µM) of 0.288 and a relative viability ([1]; first compound 0.4 µM) of 0.154. It also gave a relative viability ([1]; first compound 1.265 µM) of 0.136, a relative viability ([1]; first compound 4 µM) of 0.112 and a relative viability ([2]; first compound 0.04 µM) of 0.521. For the same cell line, the relative viability ([2]; first compound 0.1265 µM) was 0.423, the relative viability ([2]; first compound 0.4 µM) was 0.404 and the relative viability ([2]; first compound 1.265 µM) was 0.368. It also gave a relative viability ([2]; first compound 4 µM) of 0.399, a relative viability ([3]; first compound 0.04 µM) of 0.72 and a relative viability ([3]; first compound 0.1265 µM) of 0.452. For the same cell line, the relative viability ([3]; first compound 0.4 µM) was 0.444, the relative viability ([3]; first compound 1.265 µM) was 0.205 and the relative viability ([3]; first compound 4 µM) was 0.15. It also gave a relative viability ([4]; first compound 0.04 µM) of 0.891, a relative viability ([4]; first compound 0.1265 µM) of 0.683 and a relative viability ([4]; first compound 0.4 µM) of 0.828. For the same cell line, the relative viability ([4]; first compound 1.265 µM) was 0.716 and the relative viability ([4]; first compound 4 µM) was 0.718.
With LCLC-103H the relative viability ([1]; first compound 0.04 µM) was 0.532, the relative viability ([1]; first compound 0.1265 µM) was 0.37 and the relative viability ([1]; first compound 0.4 µM) was 0.134. The relative viability ([1]; first compound 1.265 µM) was 0.227, the relative viability ([1]; first compound 4 µM) was 0.178 and the relative viability ([2]; first compound 0.04 µM) was 0.798. It also gave a relative viability ([2]; first compound 0.1265 µM) of 0.733, a relative viability ([2]; first compound 0.4 µM) of 0.743 and a relative viability ([2]; first compound 1.265 µM) of 0.718. It also gave a relative viability ([2]; first compound 4 µM) of 0.707, a relative viability ([3]; first compound 0.04 µM) of 1.2 and a relative viability ([3]; first compound 0.1265 µM) of 0.935. The relative viability ([3]; first compound 0.4 µM) was 0.961, the relative viability ([3]; first compound 1.265 µM) was 1.11 and the relative viability ([3]; first compound 4 µM) was 1.03. The relative viability ([4]; first compound 0.04 µM) was 1.11, the relative viability ([4]; first compound 0.1265 µM) was 1.13 and the relative viability ([4]; first compound 0.4 µM) was 0.999. For the same cell line, the relative viability ([4]; first compound 1.265 µM) was 1.17 and the relative viability ([4]; first compound 4 µM) was 1.2.
HCC-78 was tested, and the relative viability ([1]; first compound 0.04 µM) was 0.428, the relative viability ([1]; first compound 0.1265 µM) was 0.474 and the relative viability ([1]; first compound 1.265 µM) was 0.4. The relative viability ([1]; first compound 4 µM) was 0.428, the relative viability ([2]; first compound 0.04 µM) was 0.893 and the relative viability ([2]; first compound 0.1265 µM) was 0.669. It also gave a relative viability ([2]; first compound 0.4 µM) of 0.79, a relative viability ([2]; first compound 1.265 µM) of 0.588 and a relative viability ([2]; first compound 4 µM) of 0.78. For the same cell line, the relative viability ([3]; first compound 0.04 µM) was 0.494, the relative viability ([3]; first compound 0.1265 µM) was 0.336 and the relative viability ([3]; first compound 0.4 µM) was 0.429. The relative viability ([3]; first compound 1.265 µM) was 0.487, the relative viability ([3]; first compound 4 µM) was 0.455 and the relative viability ([4]; first compound 0.04 µM) was 0.38. The relative viability ([4]; first compound 0.1265 µM) was 0.584, the relative viability ([4]; first compound 0.4 µM) was 0.478 and the relative viability ([4]; first compound 1.265 µM) was 0.464. It also gave a relative viability ([4]; first compound 4 µM) of 0.335.
NCI-H1915 gave a relative viability ([1]; first compound 0.04 µM) of 0.33, a relative viability ([1]; first compound 0.1265 µM) of 0.3 and a relative viability ([1]; first compound 0.4 µM) of 0.236. The relative viability ([1]; first compound 1.265 µM) was 0.186, the relative viability ([1]; first compound 4 µM) was 0.188 and the relative viability ([2]; first compound 0.04 µM) was 0.27. The relative viability ([2]; first compound 0.1265 µM) was 0.248, the relative viability ([2]; first compound 0.4 µM) was 0.252 and the relative viability ([2]; first compound 1.265 µM) was 0.268. The relative viability ([2]; first compound 4 µM) was 0.249, the relative viability ([3]; first compound 0.04 µM) was 1.03 and the relative viability ([3]; first compound 0.1265 µM) was 1.09. For the same cell line, the relative viability ([3]; first compound 0.4 µM) was 1.03, the relative viability ([3]; first compound 1.265 µM) was 1.08 and the relative viability ([3]; first compound 4 µM) was 1.04. The relative viability ([4]; first compound 0.04 µM) was 1.15, the relative viability ([4]; first compound 0.1265 µM) was 1.09 and the relative viability ([4]; first compound 0.4 µM) was 1.09. For the same cell line, the relative viability ([4]; first compound 1.265 µM) was 1.04 and the relative viability ([4]; first compound 4 µM) was 1.12.

Source: the supplement of paper PMC10307832
